{"source": "patent US9555038B2", "about": "“Heterocycle-substituted tetracyclic compounds and methods of use thereof for the treatment of viral diseases” (Merck Sharp & Dohme Corp., priority 2013, dated 2017)", "key": {"[1]": {"system": "HCV replicon 1AY93H", "test": "Cell-based HCV Replicon Assay A, replicon 1AY93H", "protocol": "(§1) To measure cell-based anti-HCV activity of compounds of the present invention, two complimentary assays were employed using various replicons. In the first assay (“Replicon Assay A”), replicon cells were seeded at 2000 cells/well in 384-well 384-well flat bottom tissue culture treated clear bottom plate (Corning 3707) in the presence of the test compound. Various concentrations of test compound, typically in 10 serial dilutions, were added to the assay mixture, with the starting concentration ranging from 333.3 nM to […]. The final concentration of DMSO was 0.5%. Fetal bovine serum was 5%, in the assay media. Cells were harvested on day 3 by removing media and washing the cells with a suitable wash buffer. The cells are lysed with the addition of 1× Qiagen lysis buffer (Cat #1062731). The replicon RNA level was measured using real time PCR (TaqMan® EZ RT-PCR, Applied Biosystems 403028) with the following primers and probes: […]\n(§2) Cyclophilin RNA was used as endogenous control and was amplified in the same reaction as NS5B (multiplex PCR). The real-time RT-PCR reactions were run on ABI PRISM 7900HT Sequence Detection System using the following program: 50° C. for 2 minutes, 60° C. for 30 minutes, 95° C. for 5 minutes, 40 cycles of 94° C. for 20 sec, 55° C. for 1 minutes.\n(§3) The amount of HCV replicon RNA per cell is quantified using a linear regression curve for a known nanogram (ng) amount of HCV replicon total RNA. This is established by plotting the Cycle Threshold values (Ct) from the Neo probe and primer set versus the log (ng) for each HCV replicon total RNA standard. The amount of HCV RNA for each replicon sample is calculated by taking the sample's Ct value, minus the line intercept, divided by the slope of the line. Similarly, the amount of Cyclophilin mRNA per cell is also quantified using a linear regression curve for a known nanogram (ng) amount of HCV replicon total RNA. Again, this is established by plotting the Cycle Threshold values (Ct) from the Cyclophilin probe and primer set versus the log (ng) for each HCV replicon total RNA standard.\n(§4) Data was obtained for various compounds of the present invention using the methods described in the Example above, and is presented in the table immediately below. Data for replicons 1A, 1AY93H and 2B were obtained using Replicon Assay A and data for replicons 1AQ30D and 1B were obtained using Replicon Assay B."}, "[2]": {"system": "HCV replicon 1A", "test": "Cell-based HCV Replicon Assay A, replicon 1A", "protocol": "as §1, §2, §3, §4"}, "[3]": {"system": "HCV replicon 2B", "test": "Cell-based HCV Replicon Assay A, replicon 2B", "protocol": "as §1, §2, §3, §4"}, "[4]": {"details": "read-out: 1A Y93H IC50, replicon 1AY93H"}}, "note": "Read-outs that look alike come from different tables or passages of the source."}
{"smiles": "COC(=O)NC(C(=O)N1CCC[C@H]1c1ncc(-c2ccc3c(c2)cc2n3C(c3cnc(-c4ccc(F)cc4)s3)Oc3cc(-c4cnc([C@@H]5CCCN5C(=O)[C@@H](NC(=O)OC)C(C)C)[nH]4)cc(F)c3-2)[nH]1)C1C[C@@H](C)O[C@@H](C)C1", "note": "(single isomer, unassigned) [Compound 80]", "values": [{"measurement": "IC50", "setting": "[1]; [4]", "result": 0.0504, "unit": "nM"}, {"measurement": "IC50", "setting": "[2]; Hepatitis C virus", "result": 0.0015, "unit": "nM"}, {"measurement": "IC50", "setting": "[3]; read-out: 2B IC50, replicon 2B", "result": 0.047, "unit": "nM"}]}
{"smiles": "CCc1ncc(C2Oc3cc(-c4cnc([C@@H]5CCCN5C(=O)[C@@H](NC(=O)OC)C(C)C)[nH]4)cc(F)c3-c3cc4cc(-c5cnc([C@@H]6CCCN6C(=O)[C@@H](NC(=O)OC)C(C)C)[nH]5)ccc4n32)s1", "note": "(single isomer, unassigned) [Compound 82]", "values": [{"measurement": "IC50", "setting": "[1]; [4]", "result": 1.58, "unit": "nM"}, {"measurement": "IC50", "setting": "[2]", "result": 0.0023, "unit": "nM"}, {"measurement": "IC50", "setting": "[3]; read-out: 2B IC50, replicon 2B", "result": 1.1, "unit": "nM"}]}
{"smiles": "CCc1ncc(C2Oc3cc(-c4cnc([C@@H]5CCCN5C(=O)[C@@H](NC(=O)OC)C(C)C)[nH]4)cc(F)c3-c3cc4cc(-c5cnc([C@@H]6C[C@H]7C[C@H]7N6C(=O)[C@@H](CC(=O)OC)C(C)C)[nH]5)ccc4n32)s1", "note": "(single isomer, unassigned) [Compound 84]", "values": [{"measurement": "IC50", "setting": "[1]; [4]", "result": 0.0708, "unit": "nM"}, {"measurement": "IC50", "setting": "[2]", "result": 0.0037, "unit": "nM"}, {"measurement": "IC50", "setting": "[3]; read-out: 2B IC50, replicon 2B", "result": 0.425, "unit": "nM"}]}
{"smiles": "CCCc1ncc(C2Oc3cc(-c4cnc([C@@H]5CCCN5C(=O)[C@@H](NC(=O)OC)C(C)C)[nH]4)cc(F)c3-c3cc4cc(-c5cnc([C@@H]6C[C@H]7C[C@H]7N6C(=O)[C@@H](NC(=O)OC)C(C)C)[nH]5)ccc4n32)s1", "note": "(single isomer, unassigned) [Compound 91]", "values": [{"measurement": "IC50", "setting": "[1]; [4]", "result": 0.0537, "unit": "nM"}, {"measurement": "IC50", "setting": "[2]", "result": 0.0021, "unit": "nM"}, {"measurement": "IC50", "setting": "[3]; read-out: 2B IC50, replicon 2B", "result": 0.17, "unit": "nM"}]}
{"smiles": "COC(=O)N[C@H](C(=O)N1CCC[C@H]1c1ncc(-c2cc(F)c3c(c2)OC(c2cnc(-c4ccc(F)cc4F)s2)n2c-3cc3cc(-c4cnc([C@@H]5CCCN5C(=O)[C@@H](NC(=O)OC)C(C)C)[nH]4)ccc32)[nH]1)C(C)C", "note": "(single isomer, unassigned) [Compound 99]", "values": [{"measurement": "IC50", "setting": "[1]; [4]", "result": 0.26, "unit": "nM"}, {"measurement": "IC50", "setting": "[2]", "result": 0.0016, "unit": "nM"}, {"measurement": "IC50", "setting": "[3]; read-out: 2B IC50, replicon 2B", "result": 0.1, "unit": "nM"}]}
{"smiles": "COC(=O)NC(C(=O)N1[C@@H]2C[C@@H]2C[C@H]1c1ncc(-c2ccc3c(c2)c(F)c2n3C(c3cnc(C4CC4)s3)Oc3cc(-c4cnc([C@@H]5CCCN5C(=O)[C@@H](NC(=O)OC)C(C)C)[nH]4)cc(F)c3-2)[nH]1)C1CCOC(C)(C)C1", "note": "(single isomer, unassigned) [Compound 113]", "values": [{"measurement": "IC50", "setting": "[1]; [4]", "result": 0.678, "unit": "nM"}, {"measurement": "IC50", "setting": "[2]", "result": 0.002, "unit": "nM"}, {"measurement": "IC50", "setting": "[3]; read-out: 2B IC50, replicon 2B", "result": 0.176, "unit": "nM"}]}
{"smiles": "CCCc1ncc(C2Oc3cc(-c4cnc([C@@H]5CCCN5C(=O)[C@@H](NC(=O)OC)C(C)C)[nH]4)cc(C)c3-c3cc4cc(-c5cnc([C@@H]6C[C@H]7C[C@H]7N6C(=O)[C@@H](NC(=O)OC)C(C)C)[nH]5)ccc4n32)s1", "note": "(single isomer, unassigned) [Compound 205]", "values": [{"measurement": "IC50", "setting": "[1]; [4]", "result": 2.46, "unit": "nM"}, {"measurement": "IC50", "setting": "[2]; Hepatitis C virus", "result": 0.006, "unit": "nM"}, {"measurement": "IC50", "setting": "[3]; read-out: 2B IC50, replicon 2B", "result": 0.57, "unit": "nM"}]}
{"smiles": "COC(=O)N[C@H](C(=O)N1CCC[C@H]1c1ncc(-c2cc(C)c3c(c2)OC(c2cnc(C4CC4)s2)n2c-3cc3cc(-c4cnc([C@@H]5C[C@H]6C[C@H]6N5C(=O)[C@@H](NC(=O)OC)C(C)(C)F)[nH]4)ccc32)[nH]1)C(C)C", "note": "(single isomer, unassigned) [Compound 209]", "values": [{"measurement": "IC50", "setting": "[1]; [4]", "result": 0.197, "unit": "nM"}, {"measurement": "IC50", "setting": "[2]", "result": 0.003, "unit": "nM"}, {"measurement": "IC50", "setting": "[3]; read-out: 2B IC50, replicon 2B", "result": 0.155, "unit": "nM"}]}
{"smiles": "COC(=O)NC(C(=O)N1CCC[C@H]1c1ncc(-c2ccc3c(c2)cc2n3C(c3cnc(C4CC4)s3)Oc3cc(-c4cnc([C@@H]5CCCN5C(=O)[C@@H](NC(=O)OC)C(C)C)[nH]4)cc(C)c3-2)[nH]1)C1C[C@@H](C)O[C@@H](C)C1", "note": "(single isomer, unassigned) [Compound 215]", "values": [{"measurement": "IC50", "setting": "[1]; Hepatitis C virus, read-out: 1A Y93H IC50 (nM), replicon 1AY93H", "result": 0.828, "unit": "nM"}, {"measurement": "IC50", "setting": "[2]; Hepatitis C virus", "result": 0.0024, "unit": "nM"}, {"measurement": "IC50", "setting": "[3]; Hepatitis C virus, read-out: 2B IC50 (nM), replicon 2B", "result": 0.09, "unit": "nM"}]}
{"smiles": "COC(=O)NC(C(=O)N1CCC[C@H]1c1ncc(-c2ccc3c(c2)cc2n3C(c3cnc(C4CCC4)s3)Oc3cc(-c4cnc([C@@H]5CCCN5C(=O)[C@@H](NC(=O)OC)C(C)C)[nH]4)cc(C)c3-2)[nH]1)C1C[C@@H](C)O[C@@H](C)C1", "note": "(single isomer, unassigned) [Compound 218]", "values": [{"measurement": "IC50", "setting": "[1]; [4]", "result": 0.12, "unit": "nM"}, {"measurement": "IC50", "setting": "[2]; Hepatitis C virus", "result": 0.002, "unit": "nM"}, {"measurement": "IC50", "setting": "[3]; read-out: 2B IC50, replicon 2B", "result": 0.035, "unit": "nM"}]}
